Each structure is given as a SMILES string.

The target in assay [1] is T1, Polyunsaturated fatty acid 5-lipoxygenase (Homo sapiens, UniProt P09917).
T1 sequence (P09917 whole entry): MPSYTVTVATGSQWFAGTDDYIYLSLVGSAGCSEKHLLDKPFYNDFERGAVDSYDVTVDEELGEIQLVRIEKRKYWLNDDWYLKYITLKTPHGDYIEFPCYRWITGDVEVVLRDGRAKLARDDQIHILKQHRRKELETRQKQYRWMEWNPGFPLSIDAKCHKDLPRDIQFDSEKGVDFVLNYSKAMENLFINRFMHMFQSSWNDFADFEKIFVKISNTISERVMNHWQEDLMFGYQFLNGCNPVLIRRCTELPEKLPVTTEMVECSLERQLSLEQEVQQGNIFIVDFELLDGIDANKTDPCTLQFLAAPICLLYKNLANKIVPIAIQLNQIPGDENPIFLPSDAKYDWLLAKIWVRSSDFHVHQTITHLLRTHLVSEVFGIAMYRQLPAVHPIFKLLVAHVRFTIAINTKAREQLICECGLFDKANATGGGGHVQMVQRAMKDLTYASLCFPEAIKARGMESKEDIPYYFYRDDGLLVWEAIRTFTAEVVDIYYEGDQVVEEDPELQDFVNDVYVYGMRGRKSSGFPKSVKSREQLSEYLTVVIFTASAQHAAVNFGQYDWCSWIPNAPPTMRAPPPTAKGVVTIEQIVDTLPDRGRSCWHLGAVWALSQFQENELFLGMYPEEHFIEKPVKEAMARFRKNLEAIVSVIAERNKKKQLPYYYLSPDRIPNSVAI
The experiment in a line: Inhibition of calcium ionophore (A-23187)-stimulated LTB4 formation in human neutrophil assay.

The nature of assay [2]: Inhibition of calcium ionophore (A-23187)-stimulated LTB4 formation in human neutrophil assay.

Consider `C/C(=N\OC(c1ccc(OCc2ccc3ccccc3n2)cc1)C1CCCCC1)C(=O)O` (centres undefined) [S-E-2-{Cyclohexyl-[4-(quinolin-2-ylmethoxy)-phenyl]-methoxyimino}-propionic acid], for which the IC50 in assay [1] worked out at 15 nM.

As for `C/C(=N\OC(c1ccc(OCc2ccc3ccccc3n2)cc1)C1CCCCCC1)C(=O)O` (centres undefined) [2-{Cycloheptyl-[4-(quinolin-2-ylmethoxy)-phenyl]-methoxyimino}-propionic acid (0.5H2O)], in assay [2], the IC50 worked out at 13 nM.

For `O=C(O)/C=N/OC(c1ccc(OCc2cnc3ccccc3n2)cc1)C1CCCCC1` (centres undefined) [{Cyclohexyl-[4-(quinoxalin-2-ylmethoxy)-phenyl]-methoxyimino}-acetic acid], the IC50 in assay [2] was 25 nM.

As to `O=C(O)/C=N/OC(c1ccc(OCc2ccccn2)cc1)C1CCCCC1` (centres undefined) [{Cyclohexyl-[4-(pyridin-2-ylmethoxy)-phenyl]-methoxyimino}-acetic acid], the IC50 in assay [2] was 150 nM.

The IC50 is the point on the concentration scale where inhibition reaches its midpoint.
